Test results as given in patent publication US20250296953A1, “3,4-THIAZOLO-STEROIDS AND METHODS OF MAKING AND USING THE SAME” (Arkansas State University - Jonesboro, priority 2018, published 2025).
Read-outs that look alike come from different tables or passages of the source.

How the values were obtained:
Experiment in all cases: Melanoma cytotoxicity assay (resazurin)
Format in all cases: cell-based
SK-MEL-28 = details: for SK-MEL-28 (% inhibition) / IC50: SK-MEL-28 melanoma cells, resazurin; for SK-MEL-28 (% inhibition): 24 hours with compound, concentration not given; for SK-MEL-28 (% viability): human, 24 h; for IC50: Homo sapiens, 24 hours
Procedure: (§1) Cytotoxicity Assay: Melanoma cells (˜4000 cells in each well) were incubated in a 96 well plates at 37° C. in 5% CO2 for 24 hours. Compounds were added in triplicates and the plate was further incubated for 24 hours. DMSO and dacarbazine were added as technical and positive controls respectively. Next day resazurin was added and the plate was further incubated for 6 hours followed by reading the plate at 544 nm (excitation) and 590 nm (emission) using BMG Labtech Fluostar Optima plate reader. IC50 values were determined by using Graphpad Prism.
(§2) On day 1, the cell line trypsinized and centrifuged to form cell pellet. The pellet was diluted in media, then counted using Countess automated cell counter. Approximately 4000 cells (198 uL) per well plated in […]. A control well of 200 uL growth media was also prepared. Wells closest to plate perimeter were filled with 200 uL PBS to prevent inner well evaporation. The 96 well plates are incubated in 37° C. incubator at 5% CO2 for 24 hours.
(§3) On day 2, compounds were added (in triplicate) along with DMSO/Dacarbazine controls (2 uL) added to bring wells to volume of 200 μL. The 96 well plates are incubated in 37° C. incubator at 5% CO2 for 24 hours.
(§4) On day 3, 40 μL of 0.15 mg/ml reszurin solution added to wells. Samples were placed in a 37° C. incubator at 5% CO2 for 6 hours. Excitation and emission for fluorescence measured at 544 nm and 590 nm using BMG Labtech Fluostar Optima plate reader
(§5) Percent viability determined by taking average of each triplicate well fluorescence and subtracting GM well reading to remove the background signal. This difference is then divided by the average of the negative control (DMSO) wells to determine percent viability.
(§6) IC50s were determined by using cereal dilution of compound to determine viability. Viabilities and concentration of cells are analyzed in Graphpad Prism by creating sigmoidal curve graph, which will determine the IC50 concentration.
(§7) We analyzed the ability of the thiazole-androstane derivatives to inhibit growth in various melanoma cell lines. The growth inhibition against melanoma cell lines of various compound is shown below in Tables 19 and 20. Inhibition results are reported as the IC50 concentration in μM of the indicated compound or as the percent viability […] of the indicated compound. NA=not available.

SK-MEL-25 = details: for SK-MEL-25 (% inhibition): 24 hours with compound, concentration not given; for SK-MEL-25 (% viability): human, 24 h; for IC50: Homo sapiens
Procedure: as §1, §2, §3, §4, §5, §6, §7

SK-MEL-5 = details: for SK-MEL-5 (% inhibition): SK-MEL-5 melanoma cells, 24 hours with compound, resazurin, concentration not given; for SK-MEL-5 (% viability): human, 24 h
Procedure: as §1, §2, §3, §4, §5, §6, §7

LOX IMVI = details: for LOX-IMVI (% inhibition) / IC50: LOX IMVI melanoma cells; for LOX-IMVI (% inhibition): 24 hours with compound, concentration not given; for LOX-IMVI (% viability): human, 24 h; for IC50: Homo sapiens
Procedure: as §1, §2, §3, §4, §5, §6, §7

MALME-3M = details: human, 24 h
Procedure: as §2, §3, §4, §5, §6, §7

[1] = SK-MEL-25 melanoma cells, resazurin
[2] = SK-MEL-25 melanoma cells (head prints SK-25), read-out: SK-25 IC50
[3] = SK-MEL-25 melanoma cells, 24 hours, resazurin, read-out: SK-MEL-25 (IC50)

| Compound | LOX-IMVI (% inhibition) (LOX IMVI; resazurin) | SK-MEL-28 (% viability) (SK-MEL-28) | SK-MEL-25 (% viability) (SK-MEL-25) | SK-MEL-5 (% viability) (SK-MEL-5) | LOX-IMVI (% viability) (LOX IMVI) | MALME-3M (% viability) (MALME-3M) | other results |
| --- | --- | --- | --- | --- | --- | --- | --- |
| C[C@]12CCc3nc(Cc4ccccc4)sc3C1=CC[C@@H]1[C@@H]2CC[C@]2(C)C(=O)CC[C@@H]12 [II.2] | 17% | – | – | – | – | – | SK-MEL-28 (% inhibition) (SK-MEL-28): 98%; SK-MEL-25 (% inhibition) (SK-MEL-25; [1]): 69%; SK-MEL-5 (% inhibition) (SK-MEL-5): 77% |
| C[C@]12CCc3nc(-c4ccc(O)cc4)sc3C1=CC[C@@H]1[C@@H]2CC[C@]2(C)C(=O)CC[C@@H]12 [II.4, (1S,2R,13R,14S,18S)-7-(4-hydroxy)-2,18-dimethyl-8-thia-6-azapentacyclo[11.7.0.02,10.05,9.014,18]icosa-5(9),7,10-trien-17-one] | 16% | – | – | – | – | – | – |
| COc1cccc(-c2nc3c(s2)C2=CC[C@@H]4[C@H](CC[C@]5(C)C(=O)CC[C@@H]45)[C@@]2(C)CC3)c1 [II.9, (1S,2R,13R,14S,18S)-7-(3-methoxyphenyl)-2,18-dimethol-8-thia-6-azapentacyclo[11.7.0.02,10.05,9.014,18]icosa-5(9),7,10-trien-17-one] | 13% | – | – | – | – | – | – |
| C[C@]12CCc3nc(-c4ccccc4O)sc3C1=CC[C@@H]1[C@@H]2CC[C@]2(C)C(=O)CC[C@@H]12 [II.11] | 35% | – | – | – | – | – | – |
| C[C@]12CCc3nc(-c4cccc(O)c4)sc3C1=CC[C@@H]1[C@@H]2CC[C@]2(C)C(=O)CC[C@@H]12 [II.17, (1S,2R,13R,14S,18S)-7-(3-hydroxy)-2,18-dimethyl-8-thia-6-azapentacyclo[11.7.0.02,10.05,9.014,18]icosa-5(9),7,10-trien-17-one] | 17% | – | – | – | – | – | – |
| CCOc1cccc(-c2nc3c(s2)C2=CC[C@@H]4[C@H](CC[C@]5(C)C(=O)CC[C@@H]45)[C@@]2(C)CC3)c1 [II.23] | 52% | – | – | – | – | – | – |
| C[C@]12CCc3nc(-c4cc(Cl)cc(Cl)c4)sc3C1=CC[C@@H]1[C@@H]2CC[C@]2(C)C(=O)CC[C@@H]12 [II.25] | 89% | – | – | – | – | – | – |
| CNc1nc2c(s1)C1=CC[C@H]3[C@@H]4CC[C@H](O)[C@@]4(C)CC[C@@H]3[C@@]1(C)CC2 [IIIa.2, (1S,2R,13R,14S,17S,18S)-2,18-dimethyl-7-(methylamino)-8-thia-6-azapentacyclo[11.7.0.02,10.05,9.014,18]icosa-5(9),6,10-trien-17-ol] | – | 1.9% | 6.21% | 2.02% | 14% | 59.51% | – |
| CCNc1nc2c(s1)C1=CC[C@H]3[C@@H]4CC[C@H](O)[C@@]4(C)CC[C@@H]3[C@@]1(C)CC2 [IIIa.3, (1S,2R,13R,14S,17S,18S)-7-(ethylamino)-2,18-dimethyl-8-thia-6-azapentacyclo[11.7.0.02,10.05,9.014,18]icosa-5(9),6,10-trien-17-ol] | – | 2.00% | 5.06% | 2.46% | 6% | 51.83% | IC50 (LOX IMVI): > 20 µM |
| CCCCNc1nc2c(s1)C1=CC[C@H]3[C@@H]4CC[C@H](O)[C@@]4(C)CC[C@@H]3[C@@]1(C)CC2 [IIIa.4, (1S,2R,13R,14S,17S,18S)-7-(butylamino)-2,18-dimethyl-8-thia-6-azapentacyclo[11.7.0.02,10.05,9.014,18]icosa-5(9),6,10-trien-17-ol] | – | 1.69% | 2.63% | 2.1% | 2% | 4.96% | IC50 (SK-MEL-25; [2]): 16 µM; IC50 (LOX IMVI): 7.67 µM |
| C[C@]12CC[C@H]3[C@@H](CC=C4c5sc(NCCc6ccccc6)nc5CC[C@@]43C)[C@@H]1CC[C@@H]2O [IIIa.5, (1S,2R,13R,14S,17S,18S)-2,18-dimethyl-7-(2-phenylethylamino)-8-thia-6-azapentacyclo[11.7.0.02,10.05,9.014,18]icosa-5(9),6,10-trien-17-ol] | – | 4.28% | 9.39% | 3.49% | 10% | 55.63% | IC50 (LOX IMVI): 11 µM |
| C=CCNc1nc2c(s1)C1=CC[C@H]3[C@@H]4CC[C@H](O)[C@@]4(C)CC[C@@H]3[C@@]1(C)CC2 [IIIa.6, (1S,2R,13R,14S,17S,18S)-7-(allylamino)-2,18-dimethyl-8-thia-6-azapentacyclo[11.7.0.02,10.05,9.014,18]icosa-5(9),6,10-trien-17-ol] | – | 2.04% | 3.79% | 3.52% | 11% | 29.73% | IC50 (LOX IMVI): > 20 µM |
| C[C@]12CC[C@H]3[C@@H](CC=C4c5sc(Nc6ccccc6[N+](=O)[O-])nc5CC[C@@]43C)[C@@H]1CC[C@@H]2O [IIIa.16, (1S,2R,13R,14S,17S,18S)-2,18-dimethyl-7-(2-nitroanilino)-8-thia-6-azapentacyclo[11.7.0.02,10.05,9.014,18]icosa-5(9),6,10-trien-17-ol] | – | 8.47% | 26.7% | 10.22% | 67% | 102.39% | – |
| CC(=O)Nc1nc2c(s1)C1=CC[C@H]3[C@@H]4CC[C@H](O)[C@@]4(C)CC[C@@H]3[C@@]1(C)CC2 [IIIa.37, N-[(1S,2R,13R,14S,17S,18S)-17-hydroxy-2,18-dimethyl-8-thia-6-azapentacyclo[11.7.0.02,10.05,9.014,18]icosa-5(9),6,10-trien-7-yl]acetamide] | – | 62.56% | 39.57% | 48.52% | – | 104.91% | IC50 (SK-MEL-25; [2]): > 20 µM |
| C[C@]12CCc3sc(Nc4ccccc4Cl)nc3C1=CC[C@@H]1[C@@H]2CC[C@]2(C)C(=O)CC[C@@H]12 [IIa.11, (1S,2R,13R,14S,18S)-7-(2-chloroanilino)-2,18-dimethyl-6-thia-8-azapentacyclo[11.7.0.02,10.05,9.014,18]icosa-5(9),7,10-trien-17-one] | – | – | – | – | – | – | IC50 (SK-MEL-28): > 20 µM; SK-MEL-28 (% inhibition) (SK-MEL-28): 88%; IC50 (SK-MEL-25; [3]): 9 µM; SK-MEL-25 (% inhibition) (SK-MEL-25; [1]): 96%; SK-MEL-5 (% inhibition) (SK-MEL-5): 84%; IC50 (LOX IMVI; 24 hours, resazurin): 12 µM |
| Cc1ccc(Nc2nc3c(s2)CC[C@@]2(C)C3=CC[C@@H]3[C@@H]2CC[C@]2(C)C(=O)CC[C@@H]32)cc1 [IIa.32, (1S,2R,13R,14S,18S)-2,18-dimethyl-7-(4-methylanilino)-6-thia-8-azapentacyclo[11.7.0.02,10.05,9.014,18]icosa-5(9),7,10-trien-17-one] | – | – | – | – | – | – | IC50 (SK-MEL-28): > 20 µM; SK-MEL-28 (% inhibition) (SK-MEL-28): 63%; IC50 (SK-MEL-25; [3]): 5 µM; SK-MEL-25 (% inhibition) (SK-MEL-25; [1]): 87%; IC50 (LOX IMVI; 24 hours, resazurin): 9 µM |
| C[C@]12CCc3sc(Nc4cccc(C(=O)O)c4)nc3C1=CC[C@@H]1[C@@H]2CC[C@]2(C)C(=O)CC[C@@H]12 [IIa.34, 3-[[(1S,2R,13R,14S,18S)-2,18-dimethyl-17-oxo-6-thia-8-azapentacyclo[11.7.0.02,10.05,9.014,18]icosa-5(9),7,10-trien-7-yl]amino]benzoic acid] | – | – | – | – | – | – | SK-MEL-28 (% inhibition) (SK-MEL-28): 73%; SK-MEL-25 (% inhibition) (SK-MEL-25; [1]): 59%; SK-MEL-5 (% inhibition) (SK-MEL-5): 80% |
| CC(=O)Nc1nc2c(s1)C1=CC[C@@H]3[C@H](CC[C@]4(C)C(=O)CC[C@@H]34)[C@@]1(C)CC2 [IIb.1, N-[(1S,2R,13R,14S,18S)-2,18-dimethyl-17-oxo-8-thia-6-azapentacyclo[11.7.0.02,10.05,9.014,18]icosa-5(9),6,10-trien-7-yl]acetamide] | – | – | – | – | – | – | SK-MEL-28 (% inhibition) (SK-MEL-28): 16%; SK-MEL-25 (% inhibition) (SK-MEL-25; [1]): 31%; SK-MEL-5 (% inhibition) (SK-MEL-5): 5% |
